Assay results taken from ChEMBL document CHEMBL1149829, “Terpenoids Produced by Actinomycetes: Napyradiomycins from Streptomyces antimycoticus NT17” (2008).
Values after ≈ are worked out from the molar mass of the structure shown.

What was measured:
Type in all cases: functional
[1] = system: Enterococcus faecium; assay: Antibacterial activity against Enterococcus faecium ATCC 19434 in Mueller Hinton agar medium
[2] = system: Bacillus subtilis; assay: Antibacterial activity against Bacillus subtilis ATCC 6633 in Mueller Hinton agar medium
[3] = system: Streptococcus pyogenes; assay: Antibacterial activity against Streptococcus pyogenes ATCC 12344 in Mueller Hinton agar medium
[4] = system: Staphylococcus aureus; assay: Antibacterial activity against Staphylococcus aureus 209P JC1 in Mueller Hinton agar medium
[5] = system: Enterococcus faecalis; assay: Antibacterial activity against Enterococcus faecalis ATCC 19433 in Mueller Hinton agar medium

| MIC [1] | MIC [2] | MIC [3] | MIC [4] | MIC [5] | Structure (SMILES) |
| --- | --- | --- | --- | --- | --- |
| 15.8 µM (≈ 8.02 µg/mL) | 1 µM (≈ 0.507 µg/mL) | 7.8 µM (≈ 3.96 µg/mL) | 2 µM (≈ 1.01 µg/mL) | 31.6 µM (≈ 16 µg/mL) | CC(C)=CCC/C(C)=C/C[C@@]12OC(C)(C)[C@H](Cl)C[C@]1(Cl)C(=O)C1=C(C2=O)C(=[N+]=[N-])C(=O)C=C1O |
| 14.8 µM (≈ 8.02 µg/mL) | 3.7 µM (≈ 2 µg/mL) |  | 3.7 µM (≈ 2 µg/mL) | 14.8 µM (≈ 8.02 µg/mL) | C=C1CC[C@H](Cl)C(C)(C)[C@@H]1C[C@@]12OC(C)(C)[C@H](Cl)C[C@]1(Cl)C(=O)C1=C(C2=O)C(=[N+]=[N-])C(=O)C=C1O |
